How the values were obtained:
Type in all cases: in vivo
[1] = tested on: ECHCG=Echinochloa crus-galli; experiment: Postemergence foliar-applied herbicides and safeners, visual injury of weed; details: Echinochloa crus-galli, foliar, 480 h, read-out: Visual Injury (%) - 20 DAA ECHCG Obs, foliar; Compound A form 140 g ae/ha alone; trial of Tables 5,9,11,13
Excerpt: (§1) Seeds or nutlets of the desired test plant species were planted in a soil matrix prepared by mixing a loam or sandy loam soil (e.g., 28.6 percent silt, 18.8 percent clay, and 52.6 percent sand, with a pH of about 5.8 and an organic matter content of about 1.8 percent) and calcareous grit in an 80 to 20 ratio. The soil matrix was contained in plastic pots with a surface area of 84.6 square centimeters (cm^2). When required to ensure good germination and healthy plants, a fungicide treatment and/or other chemical or physical treatment was applied. The plants were grown for 8-22 days in a greenhouse with an approximate 14 hr photoperiod which was maintained at about 29° C. during the day and 26° C. during the night. Nutrients (Peters Excel 15-5-15 5-Ca 2-Mg and iron chelate) were applied in the irrigation solution as needed and water was added on a regular basis. Supplemental lighting was provided with overhead metal halide 1000-Watt lamps as necessary. The plants were employed for testing when they reached the second or third true leaf stage.
(§2) Treatments consisted of the acid or esters of 4-amino-3-chloro-5-fluoro-6-(4-chloro-2-fluoro-3-methoxy-phenyl)pyridine-2-carboxylic acid (compound A) and various safener components alone and in combination. Forms of compound A were applied on an acid equivalent basis. Safener components were applied on an active ingredient or acid equivalent basis depending on the compound.
(§3) Treatment requirements were calculated based upon the rates being tested, the concentration of active ingredient or acid equivalent in the formulation, and a 12 mL application volume at a rate of 187 L/ha.
(§4) For treatments comprised of formulated compounds, measured amounts of compounds were placed individually in 25 mL glass vials and diluted in a volume of 1.25% (v/v) Agri-dex crop oil concentrated to obtain 12× stock solutions. […] Application solutions were prepared by adding an appropriate amount of each stock solution (e.g., 1 mL) and diluted to the appropriate final concentrations with the addition of 10 mL of an aqueous mixture of 1.25% (v/v) Agri-dex crop oil concentrate so that the final spray solutions contained 1.25% (v/v) Agri-dex crop oil concentrate.
(§5) For treatments comprised of technical compounds, weighed amounts were placed individually in 25 mL glass vials and dissolved in a volume of 97:3 v/v acetone/DMSO to obtain 12× stock solutions. […] Application solutions were prepared by adding an appropriate amount of each stock solution (e.g., 1 mL) and diluted to the appropriate final concentrations with the addition of 10 mL of an aqueous mixture of 1.5% (v/v) Agri-dex crop oil concentrate so that the final spray solutions contained 1.25% (v/v) Agri-dex crop oil concentrate. When technical materials were used, the concentrated stock solutions were added to the spray solutions so that the final acetone and DMSO concentrations of the application solutions were […], respectively.
(§6) For treatments comprised of formulated and technical compounds, weighed amounts of the technical materials were placed individually in 25 mL glass vials and dissolved in a volume of 97:3 v/v acetone/DMSO to obtain 12× stock solutions, and measured amounts of the formulated compounds were placed individually in 25 mL glass vials and diluted in a volume of 1.5% (v/v) Agri-dex crop oil concentrate or water to obtain 12× stock solutions. […] Application solutions were prepared by adding an appropriate amount of each stock solution (e.g., 1 mL) and diluted to the appropriate final concentrations with the addition of an appropriate amount of an aqueous mixture of 1.5% (v/v) Agri-dex crop oil concentrate so that the final spray solutions contained 1.25% (v/v) Agri-dex crop oil concentrate. When required, additional water and/or 97:3 v/v acetone/DMSO was added to individual application solutions so that the final acetone and DMSO concentrations of the application solutions being compared were 8.1% and 0.25%, respectively. […]

ORYSA=Orysa sativa, Rice [2] = experiment: In-water applied herbicides and safeners in transplanted paddy rice, visual injury; details: in-water
Method: Weed seeds or nutlets of the desired test plant species were planted in puddled soil (mud) prepared by mixing a shredded, non-sterilized mineral soil (50.5 percent silt, 25.5 percent clay, and 24 percent sand, with a pH of about 7.6 and an organic matter content of about 2.9 percent) and water at a 1:1 volumetric ratio. The prepared mud was dispensed in 365 mL aliquots into 16-ounce (oz.) non-perforated plastic pots with a surface area of 86.59 square centimeters (cm^2) leaving a headspace of 3 centimeters (cm) in each pot. Rice seeds were planted in Sun Gro MetroMix® 306 planting mixture, which typically has a pH of 6.0 to 6.8 and an organic matter content of about 30 percent, in plastic plug trays. Seedlings at the second or third leaf stage of growth were transplanted into 860 mL of mud contained in 32-oz. non-perforated plastic pots with a surface area of 86.59 cm^2 4 days prior to herbicide application. The paddy was created by filling the headspace of the pots with 2.5 to 3 cm of water. When required to ensure good germination and healthy plants, a fungicide treatment and/or other chemical or physical treatment was applied. The plants were grown for 4-22 days in a greenhouse with an approximate 14 h photoperiod which was maintained at about 29′C during the day and about 26° C. during the night. Nutrients were added as Osmocote® (17:6:10, N:P:K+minor nutrients) at 2 g per 16-oz. pot and 4 g per 32-oz. pot. Water was added on a regular basis to maintain the paddy flood, and supplemental lighting was provided with overhead metal halide 1000-Watt lamps as necessary. The plants were employed for testing when they reached the second or third true leaf stage.
as §2, with “safeners” for “safener components”
Treatment requirements for each compound or herbicidal component were calculated based upon the rates being tested, the concentration of active ingredient or acid equivalent in the formulation, an application volume of 2 mL per component per pot, and an application area of 86.59 cm^2 per pot.
For formulated compounds, a measured amount was placed in an individual 100 or 200 mL glass vial and was dissolved in a volume of 1.25% (v/v) Agri-Dex® crop oil concentrate to obtain application solutions.
For technical grade compounds, a weighed amount can be placed in an individual 100 to 200 mL glass vial and dissolved in a volume of acetone to obtain concentrated stock solutions. […] The concentrated stock solutions obtained can be diluted with an equivalent volume of an aqueous mixture containing 2.5% (v/v) crop oil concentrate so that the final application solutions contain 1.25% (v/v) crop oil concentrate.
Applications were made by injecting with a pipetter appropriate amounts of the application solutions, individually and sequentially, into the aqueous layer of the paddy. Control plants were treated in the same manner with the solvent blank. Applications were made so that all treated plant material received the same concentrations of acetone and crop oil concentrate.
The treated plants and control plants were placed in a greenhouse as described above and water was added as needed to maintain a paddy flood. After approximately 3 weeks the condition of the test plants as compared with that of the untreated plants was determined visually and scored on a scale of 0 to 100 percent where 0 corresponds to no injury or growth inhibition and 100 corresponds to complete kill.
Colby's equation was used to determine the herbicidal effects expected from the mixtures (Colby, S. R. 1967. Calculation of the synergistic and antagonistic response of herbicide combinations. Weeds 15:20-22.). […]

ORYSA=Orysa sativa, Rice [3] = experiment: Postemergence foliar-applied herbicides and safeners in direct-seeded rice, visual injury; details: foliar; for Visual Injury (%) - 21 DAA ORYSA-‘Clearfield 171’ Obs / Visual Injury (%) - 21 DAA ORYSA-‘Neptune’ Obs / Visual Injury (%) - 21 DAA ORYSA-‘Wells’ Obs: Tables 1,2,7,8
Excerpt: as §1, §2, §3, §4, §5, §6

SMILES	pest or weed control at 140 g/ha [1]	Visual Injury (%) - 21 DAA ORYSA - ‘M202’ Obs (ORYSA=Orysa sativa, Rice [2]; Compound A form 140 g ae/ha alone)	Visual crop injury (%) at 140 g/ha (ORYSA=Orysa sativa, Rice [3]; Oryza sativa, 480 h, read-out: Visual Injury (%) - 20 DAA ORYSA-‘Clearfield 171’ Obs, foliar, Compound A form 140 g ae/ha alone, trial of Tables 5,9,11,13)	Visual Injury (%) - 21 DAA ORYSA - ‘M202’ Obs (ORYSA=Orysa sativa, Rice [2]; safener 140 g ai/ha alone)	Visual Injury (%) - 21 DAA ORYSA - ‘M202’ Obs (ORYSA=Orysa sativa, Rice [2]; safener 280 g ai/ha alone)	Visual Injury (%) - 21 DAA ORYSA - ‘M202’ Obs (ORYSA=Orysa sativa, Rice [2]; safener 560 g ai/ha alone)	Visual Injury (%) - 21 DAA ORYSA-‘Clearfield 171’ Obs (ORYSA=Orysa sativa, Rice [3]; safener 70 g ai/ha alone)	Visual Injury (%) - 21 DAA ORYSA-‘Neptune’ Obs (ORYSA=Orysa sativa, Rice [3]; safener 70 g ai/ha alone)	Visual Injury (%) - 21 DAA ORYSA-‘Wells’ Obs (ORYSA=Orysa sativa, Rice [3]; safener 70 g ai/ha alone)	Visual Injury (%) - 21 DAA ORYSA-‘Clearfield 171’ Obs (ORYSA=Orysa sativa, Rice [3]; safener 140 g ai/ha alone)	Visual Injury (%) - 21 DAA ORYSA-‘Neptune’ Obs (ORYSA=Orysa sativa, Rice [3]; safener 140 g ai/ha alone)	Visual Injury (%) - 21 DAA ORYSA-‘Wells’ Obs (ORYSA=Orysa sativa, Rice [3]; safener 140 g ai/ha alone)	Visual Injury (%) - 21 DAA ORYSA-‘Neptune’ Obs (ORYSA=Orysa sativa, Rice [3]; safener 280 g ai/ha alone)	Visual Injury (%) - 21 DAA ORYSA-‘Wells’ Obs (ORYSA=Orysa sativa, Rice [3]; safener 280 g ai/ha alone)
COC(=O)c1nc(-c2ccc(Cl)c(OC)c2F)c(F)c(N)c1Cl [Methyl]	98%	17.5%	12%											
CCOC(=O)C1=NOC(c2ccccc2)(c2ccccc2)C1 [Isoxadifen-ethyl, ethyl 4,5-dihydro-5,5-diphenyl-3-isoxazole-carboxylate]				0%	0%	0%	0%	0%	0%	0%	0%	0%	0%	0%
